Key:
Type in all cases: in vivo
Cyperus esculentus = test: Post-emergence herbicidal action, CYPES; set-up: key: % herbicidal action vs untreated; 100 = plants died, 0 = like control
In short: (§1)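 Foliar application at the one-leaf stage of greenhouse-grown plants in sandy loam; compound applied as WP or EC in 600–800 l/ha water containing 0.2% wetting agent. Scores are visual percentages (0% like control, 100% plants died) taken after roughly 3 weeks.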

Lolium multiflorum [1] = test: Post-emergence herbicidal action, LOLMU; set-up: key: % herbicidal action: 100 = plants died, 0 = like control
Protocol: [table] 2. Post-Emergence Herbicidal Action Against Harmful Plants Seeds of monocotyledonous and dicotyledonous weed and crop plants are laid out in sandy loam soil in wood-fiber pots, covered with soil and cultivated in a greenhouse under good growth conditions. 2 to 3 weeks after sowing, the test plants are treated at the one-leaf stage. The compounds of the invention, formulated in the form of wettable powders (WP) or as emulsion concentrates (EC), are then sprayed onto the green parts of the plants in the form of an aqueous suspension or emulsion at a water application rate equating to 600 to 800 l/ha, with addition of 0.2% wetting agent. After the test plants have been left to stand in the greenhouse under optimal growth conditions for about 3 weeks, the action of the preparations is assessed visually in comparison to untreated controls (herbicidal action in percent (%): 100% activity=the plants have died, 0% activity=like control plants). […] The tables below illustrate, in an exemplary manner, the post-emergence herbicidal action of the compounds according to the invention, the herbicidal activity being stated in percent. In the experiments that follow, herbicidal action of numerous inventive compounds and the known compounds that are structurally closest from D1 (WO 2012/028579 A1) and D2 (WO 2018/202535 A1) were compared under the above-specified conditions by the pre-emergence and post-emergence method. The example numbers given in the tables relate to the compounds disclosed in the respective documents. In addition to the compounds disclosed in D1 and D2, the following compounds V-1 to V-14 that are encompassed by D1 or D2 but are not compounds specified therein were used in the comparative experiments: • V-1: 2-(methylsulfanyl)-3-(methylsulfinyl)-N-(1-methyl-1H-tetrazol-5-yl)-4-(trifluoromethyl)benzamide • V-2: 2-(methylsulfanyl)-3-(methylsulfonyl)-N-(1-methyl-1H-tetrazol-5-yl)-4-(trifluoromethyl)benzamide • V-3: 2,3-bis(ethylsulfanyl)-N-(1-methyl-1H-tetrazol-5-yl)-4-(trifluoromethyl)benzamide • V-4: 2-chloro-3-(ethylsulfanyl)-N-(1-methyl-1H-tetrazol-5-yl)-4-(trifluoromethyl)benzamide • V-5: 2-chloro-4-iodo-3-(methylsulfanyl)-N-(1-methyl-1H-tetrazol-5-yl)benzamide • V-6: 2-chloro-4-iodo-3-(methylsulfinyl)-N-(1-methyl-1H-tetrazol-5-yl)benzamide • V-7: 2-chloro-4-iodo-3-(methylsulfonyl)-N-(1-methyl-1H-tetrazol-5-yl)benzamide • V-8: 2-bromo-3-(methylsulfanyl)-N-(1-methyl-1H-tetrazol-5-yl)-4-(trifluoromethyl)benzamide • V-9: 2-bromo-3-(methylsulfinyl)-N-(1-methyl-1H-tetrazol-5-yl)-4-(trifluoromethyl)benzamide • V-10: 2-bromo-3-(methylsulfonyl)-N-(1-methyl-1H-tetrazol-5-yl)-4-(trifluoromethyl)benzamide • V-11: 2-bromo-3-(ethylsulfanyl)-N-(1-methyl-1H-tetrazol-5-yl)-4-(trifluoromethyl)benzamide • V-12: 2-bromo-3-(ethylsulfinyl)-N-(1-methyl-1H-tetrazol-5-yl)-4-(trifluoromethyl)benzamide • V-13: 2-bromo-3-(ethylsulfonyl)-N-(1-methyl-1-1H-tetrazol-5-yl)-4-(trifluoromethyl)benzamide • V-14: 2-cyclopropyl-3-(ethylsulfanyl)-N-(1-methyl-1H-tetrazol-5-yl)-4-(trifluoromethyl)benzamide Herbicidal Pre-Emergence Action: […]

Pharbitis purpurea = test: Pre-emergence herbicidal action, PHBPU; conditions: dosage 320 g/ha, scored visually after 3 weeks vs untreated controls (100% = plants have died)
In short: (§2)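 Pre-emergence, sandy loam soil; WP/EC formulation applied to covering soil surface, 600–800 l/ha water + 0.2% wetter; greenhouse, 3 wk; visual % damage vs untreated (0–100%).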

Polygonum convolvulus [2] = test: Pre-emergence herbicidal action, POLCO; conditions: dosage 320 g/ha, scored visually after 3 weeks vs untreated controls (100% = plants have died)
In short: as §2

Amaranthus retroflexus = test: Pre-emergence herbicidal action, AMARE; conditions: dosage 320 g/ha, scored visually after 3 weeks vs untreated controls (100% = plants have died)
In short: as §2

Polygonum convolvulus [3] = test: Post-emergence herbicidal action, POLCO
In short: as §1

Lolium multiflorum [4] = test: Pre-emergence herbicidal action, LOLMU; conditions: dosage 320 g/ha, scored visually after 3 weeks vs untreated controls (100% = plants have died)
Excerpt: 1. Pre-Emergence Herbicidal Action Against Harmful Plants Seeds of monocotyledonous and dicotyledonous weed plants and crop plants are laid out in sandy loam soil in wood-fiber pots and covered with soil. The compounds of the invention, formulated in the form of wettable powders (WP) or as emulsion concentrates (EC), are then applied to the surface of the covering soil in the form of an aqueous suspension or emulsion at a water application rate equating to 600 to 800 l/ha, with addition of 0.2% wetting agent. After the treatment, the pots are placed in a greenhouse and kept under good growth conditions for the trial plants. The damage to the test plants is scored visually after a test period of 3 weeks by comparison with untreated controls (herbicidal activity in percent (%): 100% activity=the plants have died, 0% activity=like control plants). […] The tables below illustrate, in an exemplary manner, the […] herbicidal action of the compounds according to the invention, the herbicidal activity being stated in percent. [table] In the experiments that follow, herbicidal action of numerous inventive compounds and the known compounds that are structurally closest from D1 (WO 2012/028579 A1) and D2 (WO 2018/202535 A1) were compared under the above-specified conditions by the pre-emergence and post-emergence method. The example numbers given in the tables relate to the compounds disclosed in the respective documents. In addition to the compounds disclosed in D1 and D2, the following compounds V-1 to V-14 that are encompassed by D1 or D2 but are not compounds specified therein were used in the comparative experiments: • V-1: 2-(methylsulfanyl)-3-(methylsulfinyl)-N-(1-methyl-1H-tetrazol-5-yl)-4-(trifluoromethyl)benzamide • V-2: 2-(methylsulfanyl)-3-(methylsulfonyl)-N-(1-methyl-1H-tetrazol-5-yl)-4-(trifluoromethyl)benzamide • V-3: 2,3-bis(ethylsulfanyl)-N-(1-methyl-1H-tetrazol-5-yl)-4-(trifluoromethyl)benzamide • V-4: 2-chloro-3-(ethylsulfanyl)-N-(1-methyl-1H-tetrazol-5-yl)-4-(trifluoromethyl)benzamide • V-5: 2-chloro-4-iodo-3-(methylsulfanyl)-N-(1-methyl-1H-tetrazol-5-yl)benzamide • V-6: 2-chloro-4-iodo-3-(methylsulfinyl)-N-(1-methyl-1H-tetrazol-5-yl)benzamide • V-7: 2-chloro-4-iodo-3-(methylsulfonyl)-N-(1-methyl-1H-tetrazol-5-yl)benzamide • V-8: 2-bromo-3-(methylsulfanyl)-N-(1-methyl-1H-tetrazol-5-yl)-4-(trifluoromethyl)benzamide • V-9: 2-bromo-3-(methylsulfinyl)-N-(1-methyl-1H-tetrazol-5-yl)-4-(trifluoromethyl)benzamide • V-10: 2-bromo-3-(methylsulfonyl)-N-(1-methyl-1H-tetrazol-5-yl)-4-(trifluoromethyl)benzamide • V-11: 2-bromo-3-(ethylsulfanyl)-N-(1-methyl-1H-tetrazol-5-yl)-4-(trifluoromethyl)benzamide • V-12: 2-bromo-3-(ethylsulfinyl)-N-(1-methyl-1H-tetrazol-5-yl)-4-(trifluoromethyl)benzamide • V-13: 2-bromo-3-(ethylsulfonyl)-N-(1-methyl-1-1H-tetrazol-5-yl)-4-(trifluoromethyl)benzamide • V-14: 2-cyclopropyl-3-(ethylsulfanyl)-N-(1-methyl-1H-tetrazol-5-yl)-4-(trifluoromethyl)benzamide Herbicidal Pre-Emergence Action: […]

Compound | herbicidal action CYPES (Cyperus esculentus; post-emergence, dosage 80 g/ha) [%] | herbicidal action LOLMU (Lolium multiflorum [1]; post-emergence, dosage 80 g/ha) [%] | herbicidal activity PHBPU (Pharbitis purpurea) [%] | herbicidal activity POLCO (Polygonum convolvulus [2]) [%] | herbicidal action CYPES (Cyperus esculentus; Dosage 80 g/ha) | herbicidal action LOLMU (Lolium multiflorum [1]; Dosage 80 g/ha) | herbicidal activity AMARE (Amaranthus retroflexus) [%] | herbicidal action POLCO (Polygonum convolvulus [3]; Dosage 80 g/ha) | herbicidal activity LOLMU (Lolium multiflorum [4]) [%] | herbicidal action POLCO (Polygonum convolvulus [3]; post-emergence, dosage 80 g/ha) [%]
Cc1c(C(=O)Nc2nnnn2C)ccc(C(F)(F)F)c1C[S+](C)[O-] (stereo not shown) [Example 1-84] | 80 | 80 | 80 | 90 | – | – | – | – | – | –
Cc1c(C(=O)Nc2nnnn2C)ccc(C(F)(F)F)c1CS(C)(=O)=O [Example 1-85] | – | – | – | 90 | 80 | 80 | 100 | 80 | – | –
CSCc1c(C(F)(F)F)ccc(C(=O)Nc2nnnn2C)c1SC [Example 1-161] | – | – | – | – | 80 | – | 100 | – | 90 | –
CCSCc1c(C(F)F)ccc(C(=O)Nc2nnnn2C)c1SCC [Example 1-191] | – | – | – | 100 | – | – | 100 | 90 | 80 | –
CSCc1c(C(F)(F)F)ccc(C(=O)Nc2nnnn2C)c1Cl [Example 1-296] | 90 | 90 | – | – | – | – | 100 | – | 90 | –
CSCc1c(C(F)(F)F)ccc(C(=O)Nc2nnnn2C)c1Br [Example 1-380] | – | 100 | 80 | – | – | – | 100 | – | – | 90
Cn1nnnc1NC(=O)c1ccc(C(F)(F)F)c(C[S+](C)[O-])c1Br (stereo not shown) [Example 1-381] | 90 | 80 | 80 | 90 | – | – | 100 | – | – | 80
Cn1nnnc1NC(=O)c1ccc(Cl)c(CS(C)(=O)=O)c1Cl [Example 1-561] | – | – | – | 100 | 80 | – | 100 | – | 80 | –
CCn1nnnc1NC(=O)c1ccc(C(F)(F)F)c(CSC)c1SC [Example 2-161] | 80 | – | – | 90 | – | – | 100 | – | 80 | 100
CCn1nnnc1NC(=O)c1ccc(C(F)(F)F)c(CSC)c1Br [Example 2-380] | – | 80 | 80 | 90 | – | – | 100 | – | – | 90
CCn1nnnc1NC(=O)c1ccc(C(F)(F)F)c(C[S+](C)[O-])c1Br (stereo not shown) [Example 2-381] | – | 80 | 80 | – | – | – | 100 | – | 80 | 90
CCn1nnnc1NC(=O)c1ccc(C(F)(F)F)c(CS(C)(=O)=O)c1Br [Example 2-382] | – | – | – | 90 | – | – | 100 | 80 | 80 | –
CCSCc1c(C(F)(F)F)ccc(C(=O)Nc2nnnn2CC)c1Br [Example 2-383] | – | 80 | – | 90 | – | – | 100 | – | 100 | 90
CCCn1nnnc1NC(=O)c1ccc(C(F)(F)F)c(CSC)c1Cl [Example 3-296] | – | – | – | 90 | – | – | 100 | – | 80 | –
CCCn1nnnc1NC(=O)c1ccc(C(F)(F)F)c(CSCC)c1Cl [Example 3-299] | – | – | – | 90 | – | – | 100 | 80 | 90 | –
CCCn1nnnc1NC(=O)c1ccc(C(F)(F)F)c(CSCC)c1Br [Example 3-383] | – | – | – | 90 | – | – | 100 | 90 | 80 | –
CCCn1nnnc1NC(=O)c1ccc(C(F)(F)F)c(CS(=O)(=O)CC)c1Br [Example 3-385] | – | – | – | 80 | – | – | 100 | 90 | 90 | –
